Tests used:
[1] = tested on: hair growth cycle; details: animal studies; topical; co-pending application 60/544,116; cited from earlier work
[2] = In-vitro human cadaver skin permeation, Franz diffusion cell; format: in vitro ADME; details: for Mean Percentage of Radioactivity Recovered at 24 Hours, Dermis / Mean Percentage of Radioactivity Recovered at 24 Hours, Epidermis / Mean Percentage of Radioactivity Recovered at 24 Hours, Receptor / Mean Percentage of Radioactivity Recovered at 24 Hours, Surface / Mean Percentage of Radioactivity Recovered at 24 Hours, Total: Compound 0.96% w/v
Experimental: Experimentally, the flux can be determined by measuring the amount of drug permeation into the receptor compartment of a Franz cell over time. The cumulative drug permeated per cm^2 is than plotted against time and the steady state permeation rate (flux, J) is calculated from the slope of the linear portion of the curve according to Fick's 1st law of diffusion.
In Examples 2-5 infra, the cumulative amount of Compound permeated through the skin as amount per surface area (μg/cm^2) was plotted against time (hours). Flux (μg/cm^2/hr) was determined by calculating the slope of the linear portion of the permeation profile. Drawing III depicts such a calculation. Typical variance in measured flux of 10 replicate samples is about 30-50%. However, if the formulation provides low flux of the Compound, indicating poor permeation through the skin, the variance could be much higher than the typical 30-50%.
This methodology utilizes a device known as the Franz Diffusion Cell. A typical device is depicted in Drawing II. The test is carried out using the following general methodology. A sample of human cadaver skin is inserted in to the area labeled as skin. The skin should be oriented so that the stratum corneum is facing the Donor Compartment and the dermis is facing the Receptor Compartment. The Receptor Compartment will be filled with a predefined solution (based on solubility of test agent). A dose of test agent, in a defined volume, is inserted into the Donor Compartment so that it may come in contact with the skin sample and potentially diffuse thru the skin into the Receptor Compartment. Samples of solution are then withdrawn from Receptor Compartment at defined time points and the concentration of test agent is determined. The amount of test agent permeated per cm^2 of skin is plotted versus time and the flux of the test agent is calculated as described above. The reader's attention is directed to Example 2, which provides a more detailed discussion of this test.
As with any testing method, the results can vary depending upon how the test is carried out. […] Thus, as used in this application including the claims, any flux determination should be carried by controlling the following parameters: • 1) Apparatus—The apparatus should be a Franz Diffusion Cell. Each cell should have a cell volume of 5.4 to 5.5 ml. Ten (10) cells should be utilized per formulation (i.e. both the test formulation and the reference formulation). As is standard in the field, the results are reported as the mean. • 2) Skin—Skin samples used for both the test formulation and the reference formulation should be human cadaver skin obtained from a single donor, who is […], between the ages of 50 and 75 and is obtained from the subjects back. […] The surface area of the skin samples should be 0.635 cm^2 (internal diameter of opening of 9 mm). The donor compartment should be maintained at room temperature (see Table A for specifics). • 3) Testing—Testing should be carried out for 24 hours. Sample should be withdrawn at the initiation of testing, and 2, 4, 12, 16, and 24 hours after initiation of testing. The sample volume should be 0.5 ml. The Compound should be present at identical concentrations in both the test formulation and the reference formulation (w/v for liquids and w/w for semi-solids). This concentration should be equal to that used in the final dosage form (i.e., what is being developed for eventual human application). A dose volume of 10 μl/0.635 cm^2 should be used. • 4) Receptor Solution—0.1% (w/v) Brij-98 in Dulbecco's phosphate buffered saline, pit 6.9 (KH2PO4 14.7 mM and Na2HPO4 80.9 mM). • 5) Barrier Integrity—The barrier integrity of human cadaver donor skin is assessed to ensure that changes in flux are attributed to the formulation versus a faulty skin barrier (e.g., cut, scrape, lesion, etc). […] The receptor fluid is assayed for these compounds. […]

[3] = Table 2, vehicle 63.5:20:8:7.5% w/w EtOH/PG/CPE-215/Water
[4] = Table 2, vehicle 70:30% w/w EtOH/PG
[5] = Table 3, vehicle 60:20:20% w/w EtOH/PG/IPM
[6] = Table 3, vehicle 63.5:20:8:7.5% w/w EtOH/PG/CPE-215/Water
[7] = Table 4, vehicle 60:20:20% w/w EtOH/PG/IPM, skin 1.03-1.19 mm
[8] = Table 4, vehicle 70:20:10% w/w EtOH/PG/IPM, skin 1.03-1.19 mm

Compound: Cn1nc(O[C@@H]2c3cc(S(=O)(=O)c4cccc(O)c4)ccc3OC(C)(C)[C@@]2(C)O)ccc1=O [Compound, 6-[[(3S,4R)-3,4-dihydro-3-hydroxy-6-[(3-hydroxyphenyl)sulfonyl]-2,2,3-trimethyl-2H-1-benzopyran-4-yl]oxy]-2-methyl-3(2H)-pyridazinone]
- Effect on the hair growth cycle [1]: alters the hair growth cycle by inducing anagen
- Flux ([2]; Example 3, Compound 0.96% w/v in ethanol:propylene glycol:Cyclopentadecanolide:Water (63.5:20:8:7.5% w/w/w/w), skin 0.71-0.96 mm and 0.90-1.04 mm): 0.053±0.003 μg/cm^2/hr
- Flux ([2]; Example 3, Compound 0.96% w/v in reference formulation (70% ethanol:30% propylene glycol w/w), skin 0.71-0.96 mm and 0.90-1.04 mm): 0.004±0.006 μg/cm^2/hr
- Flux ([2]; Example 4, carrier ethanol:propylene glycol:Cyclopentadecanolide:Water (63.5:20:8:7.5% w/w/w/w), skin 0.71-0.96 mm and 0.90-1.04 mm): 0.022±0.007 μg/cm^2/hr
- Flux ([2]; Example 4, carrier ethanol:propylene glycol:IPM (60:20:20% w/w/w), skin 0.71-0.96 mm and 0.90-1.04 mm): 0.017±0.008 μg/cm^2/hr
- Flux ([2]; Example 5, carrier ethanol:propylene glycol:IPM (60:20:20% w/w/w), skin 1.03-1.19 mm): 0.011±0.003 μg/cm^2/hr
- Flux ([2]; Example 5, carrier ethanol:propylene glycol:IPM (70:20:10% w/w/w), skin 1.03-1.19 mm): 0.007±0.003 μg/cm^2/hr
- Flux ([2]; Example 6, Compound 1.86% w/v, carrier EtOH/PG/DMI (dimethyl isosorbide) (60:30:10% w/w)): 0.036±0.0336 μg/cm^2/hr
- Flux ([2]; Example 6, Compound 1.86% w/v, carrier EtOH/PG/Miglyol 840 (50:30:20% w/w/w)): 0.11±0.007 μg/cm^2/hr
- Flux ([2]; Example 6, Compound 1.86% w/v, carrier ethanol:propylene glycol:IPM (50:30:20% w/w/w)): 191±0.026 μg/cm^2/hr
- Skin permeation as compared with the reference formulation ([2]; FIG. 4, carrier comprising a penetration enhancer (Cyclopentadecanolide) vs reference formulation): greatly enhanced
- Mean Percentage of Radioactivity Recovered at 24 Hours, Dermis [2, 3]: 0.61%
- Mean Percentage of Radioactivity Recovered at 24 Hours, Epidermis [2, 3]: 8.50%
- Mean Percentage of Radioactivity Recovered at 24 Hours, Receptor [2, 3]: 0.56%
- Mean Percentage of Radioactivity Recovered at 24 Hours, Surface [2, 3]: 84.77%
- Mean Percentage of Radioactivity Recovered at 24 Hours, Total [2, 3]: 94.43%
- Mean Percentage of Radioactivity Recovered at 24 Hours, Dermis [2, 4]: 0.06%
- Mean Percentage of Radioactivity Recovered at 24 Hours, Epidermis [2, 4]: 2.53%
- Mean Percentage of Radioactivity Recovered at 24 Hours, Receptor [2, 4]: 0.05%
- Mean Percentage of Radioactivity Recovered at 24 Hours, Surface [2, 4]: 79.30%
- Mean Percentage of Radioactivity Recovered at 24 Hours, Total [2, 4]: 81.94%
- Mean Percentage of Radioactivity Recovered at 24 Hours, Dermis [2, 5]: 0.78%
- Mean Percentage of Radioactivity Recovered at 24 Hours, Epidermis [2, 5]: 8.04%
- Mean Percentage of Radioactivity Recovered at 24 Hours, Receptor [2, 5]: 0.14%
- Mean Percentage of Radioactivity Recovered at 24 Hours, Surface [2, 5]: 79.28%
- Mean Percentage of Radioactivity Recovered at 24 Hours, Total [2, 5]: 88.24%
- Mean Percentage of Radioactivity Recovered at 24 Hours, Dermis [2, 6]: 0.76%
- Mean Percentage of Radioactivity Recovered at 24 Hours, Epidermis [2, 6]: 8.71%
- Mean Percentage of Radioactivity Recovered at 24 Hours, Receptor [2, 6]: 0.16%
- Mean Percentage of Radioactivity Recovered at 24 Hours, Surface [2, 6]: 79.36%
- Mean Percentage of Radioactivity Recovered at 24 Hours, Total [2, 6]: 88.99%
- Mean Percentage of Radioactivity Recovered at 24 Hours, Dermis [2, 7]: 1.00%
- Mean Percentage of Radioactivity Recovered at 24 Hours, Epidermis [2, 7]: 12.00%
- Mean Percentage of Radioactivity Recovered at 24 Hours, Receptor [2, 7]: 0.07%
- Mean Percentage of Radioactivity Recovered at 24 Hours, Surface [2, 7]: 73.00%
- Mean Percentage of Radioactivity Recovered at 24 Hours, Total [2, 7]: 86.1%
- Mean Percentage of Radioactivity Recovered at 24 Hours, Dermis [2, 8]: 1.04%
- Mean Percentage of Radioactivity Recovered at 24 Hours, Epidermis [2, 8]: 12.27%
- Mean Percentage of Radioactivity Recovered at 24 Hours, Receptor [2, 8]: 0.10%
- Mean Percentage of Radioactivity Recovered at 24 Hours, Surface [2, 8]: 75.24%
- Mean Percentage of Radioactivity Recovered at 24 Hours, Total [2, 8]: 88.66%

Reference: patent US20090209548A1, “FORMULATION FOR STIMULATING HAIR GROWTH” (Pfizer Inc, priority 2004, published 2009)
